Measurements as given in a melting point compilation (Tetko et al.).

Row | Structure (SMILES) | melting point [°C]
1 | O=C(O)C1(S(=O)(=O)c2ccc(Br)cc2)CCCC1 | 138 to 140
2 | O=c1[nH]c2c(c(=O)[nH]1)CCCC2 | 304 to 306
3 | O=C(O)C1CCCN1S(=O)(=O)c1ccc(Br)cc1 (configuration not stated) | 103 to 105
4 | NS(=O)(=O)c1cnn(Cc2ccccc2)c1 | 157 to 159
5 | O=S(=O)(Cl)c1ccc(Cl)nc1 | 48 to 50
6 | Ic1cnc2ccccc2c1 | 57 to 59
7 | O=C(O)c1ccccc1SCC(=O)N1CCc2ccccc21 | 152 to 154
8 | O=C(O)C1(c2ccc(Br)cc2)CCOCC1 | 195 to 197
9 | COc1cc(F)c(S(=O)(=O)Cl)c(F)c1 | 53 to 55
10 | CCNC(=O)c1cccnc1Cl | 47 to 49
11 | CCCOc1cc2c(cc1C=O)OC(C)C2 (configuration not stated) | 45 to 47
12 | O=C(O)c1c(F)ccc(S(=O)(=O)NC2CC2)c1F | 134 to 136
13 | O=C(O)CCOC1CCOCC1 | 54 to 56
14 | COc1ccc(C2(C(=O)O)CCCCC2)cc1OC | 124 to 126
15 | CC(O)Cc1ccccc1S(C)(=O)=O (configuration not stated) | 55 to 57
16 | O=C(O)c1cc([N+](=O)[O-])c(F)cc1Cl | 151 to 153
17 | OC1CN(c2ccc(C(F)(F)F)cn2)C1 | 136 to 138
18 | COc1cc(C(=O)O)ccc1OCC(=O)NC(C)C | 193 to 195

Row | Structure (SMILES) | melting point [°C]
19 | O=C(O)CCn1cc(Cl)cn1 | 91 to 93
20 | C/C(=N\O)c1ccc(-c2ccc(F)cc2)s1 | 139 to 141
21 | O=C(CCl)Nc1ccccc1-c1ccccc1 | 103 to 106
22 | CCC(=O)c1ccc(OC(F)F)cc1 | 39 to 43
23 | CC(C)(NC(=O)c1ccccc1)C(N)=S | 165 to 167
24 | O=C1CC(C(=O)O)C1 | 58 to 60
25 | CC(=O)NCc1ccc(S(N)(=O)=O)s1 | 121 to 123
26 | Cc1nc(CC(C)C)sc1C(=O)O | 169 to 171
27 | O=C(CCl)Nc1ccccc1OC(F)F | 92 to 94
28 | COc1ccc(C2C(C(=O)O)CC(=O)N2C)cc1 (configuration not stated) | 183 to 185
29 | O=C(O)CNc1nc2ccccc2s1 | 174 to 176
30 | O=C1CC2(CCCC2)C(=O)N1 | 105 to 107
31 | CC(C)c1nc(C#N)c(NN)o1 | 103 to 105
32 | CNC(=O)COc1ccc(O)cc1 | 125 to 127
33 | CC(C)c1ccc(CCC(N)=O)cc1 | 142 to 144
34 | CNC(=O)c1cc(S(=O)(=O)Cl)cn1C | 154 to 156
35 | O=C(O)c1cn(Cc2ccccc2)nn1 | 176 to 178
36 | CCN1CCN(S(=O)(=O)c2ccc(Cl)c(C(=O)O)c2)CC1 | 189 to 191

Continued, values first:

Row | melting point [°C] | Structure (SMILES)
37 | 197 to 199 | Nc1nc2c(F)cc(F)cc2s1
38 | 213 to 215 | Cc1ccc(-c2ccc(C(=O)O)c(F)c2)cc1C
39 | 146 to 148 | O=C(O)c1nnn(-c2ccc(F)cc2)c1C(F)(F)F
40 | 154 to 156 | Nc1cccc(Cl)c1N1CCOCC1
41 | 225 to 227 | Cc1oc(C(=O)O)cc1S(N)(=O)=O
42 | 107 to 109 | Cc1nn(C)c(C)c1NC(=O)CCl
43 | 131 to 133 | Brc1ccn2nccc2n1
44 | 39 to 41 | Cc1ccc(C(F)(F)C(=O)O)cc1
45 | 98 to 100 | Cc1c(S(=O)(=O)Cl)cnn1-c1ccccc1Cl
46 | 89 to 91 | Clc1nc(CN2CCCCC2)nc2scc(-c3cccs3)c12
47 | 166 to 168 | Cc1ccc(OCc2cccc(C(=O)O)c2)cn1
48 | 209 to 211 | CC1(c2ccc(C#N)cc2)NC(=O)NC1=O (configuration not stated)
49 | 82 to 84 | Nc1ncc(Cc2cccc(F)c2)s1
50 | 225 to 227 | CC(=O)NC(C)c1ccc(-c2csc(N)n2)cc1 (configuration not stated)
51 | 56 to 58 | Cc1nn(-c2ccccc2Cl)c2sc(C(=O)O)cc12
52 | 159 to 161 | Cc1occc1-c1nnc(S)n1N
53 | 79 to 81 | N#Cc1ccnc(Oc2ccccc2Cl)c1
54 | 169 to 171 | Nc1cccnn1
55 | 179 to 181 | Cc1c(C(=O)O)c(=O)oc2ccc(Br)cc12
56 | 136 to 138 | NC(=S)c1ccc(Cl)c(Cl)c1
57 | 91 to 93 | Cc1cc(C(=O)NCC(C)C)ccc1N
